Measurements as given in ChEMBL document CHEMBL1799958, “Aminoalkylcarbamoylphosphonates reduce TNFα release from activated immune cells” (Bioorg Med Chem Lett, 2010).
Active and inactive are the calls of the source. No cut-off for these calls is given here.

Columns and labels:
[1] = Antiinflammatory activity against LPS-stimulated splenocytes cells isolated from thioglycolate-stimulated C57BL/6 mouse assessed as reduction of TNFalpha mRNA level at 100 to 200 uM after 24 hrs by RT-PCR; assay type: functional, Splenocyte
[2] = Toxicity in LPS-stimulated splenocytes cells isolated from thioglycolate-stimulated C57BL/6 mouse assessed as decrease in live cells at 100 uM after 24 hrs using propidium iodide-staining by FACS analysis; assay type: cell-based; conditions: splenocyte
[3] = Cytotoxicity against LPS-stimulated splenocytes isolated from thioglycolate-stimulated C57BL/6 mouse assessed as alterations in forward and side scattering distribution for splenocytes using propidium iodide-staining after 24 hrs by FACS analysis; assay type: cell-based; conditions: splenocyte
[4] = biological target: Disintegrin and metalloproteinase domain-containing protein 17 (Homo sapiens) (UniProt P78536); experiment: Inhibition of recombinant TACE using Mca-P-L-A-Q-A-V-Dpa-R-S-S-S-R-NH2 as substrate at 1 to 100 uM after 3 hrs by fluorescence assay
Chain of Disintegrin and metalloproteinase domain-containing protein 17 (Homo sapiens) (P78536 whole entry, the tested form may be a part): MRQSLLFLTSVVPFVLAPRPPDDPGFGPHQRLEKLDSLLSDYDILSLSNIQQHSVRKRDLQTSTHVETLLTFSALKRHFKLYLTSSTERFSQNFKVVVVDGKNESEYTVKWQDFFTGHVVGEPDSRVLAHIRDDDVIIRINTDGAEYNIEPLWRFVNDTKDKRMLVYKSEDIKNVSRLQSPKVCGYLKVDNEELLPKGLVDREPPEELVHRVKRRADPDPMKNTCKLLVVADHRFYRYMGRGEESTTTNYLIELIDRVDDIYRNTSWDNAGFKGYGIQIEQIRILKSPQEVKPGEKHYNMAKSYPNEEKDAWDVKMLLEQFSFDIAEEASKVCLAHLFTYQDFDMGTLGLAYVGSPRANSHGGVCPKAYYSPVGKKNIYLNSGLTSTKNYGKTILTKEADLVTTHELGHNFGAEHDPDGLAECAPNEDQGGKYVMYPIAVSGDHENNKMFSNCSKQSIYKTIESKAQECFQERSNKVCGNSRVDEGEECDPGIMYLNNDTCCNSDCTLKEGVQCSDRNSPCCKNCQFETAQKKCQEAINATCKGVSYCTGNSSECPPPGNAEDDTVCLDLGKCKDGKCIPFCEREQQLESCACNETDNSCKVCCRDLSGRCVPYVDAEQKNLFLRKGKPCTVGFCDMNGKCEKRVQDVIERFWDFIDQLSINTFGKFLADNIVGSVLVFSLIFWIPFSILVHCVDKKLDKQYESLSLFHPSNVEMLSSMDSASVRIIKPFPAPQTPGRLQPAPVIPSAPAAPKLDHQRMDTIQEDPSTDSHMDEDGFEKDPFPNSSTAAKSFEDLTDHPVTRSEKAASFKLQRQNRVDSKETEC

Splenocyte [5] = experiment: Antiinflammatory activity against LPS-stimulated splenocytes isolated from thioglycolate-stimulated C57BL/6 mouse at 10 to 100 uM after 24 hrs by ELISA relative to control; assay type: functional, cell-based
[6] = Cytotoxicity against splenocytes isolated from thioglycolate-stimulated C57BL/6 mouse at 10 to 100 uM after 2 hrs by MTT assay; assay type: cell-based; conditions: splenocyte
RAW264.7 [7] = experiment: Antiinflammatory activity against LPS-stimulated […] at 100 uM after 24 hrs by ELISA relative to control; assay type: functional; conditions: RAW264.7, 24 h
[8] = Cytotoxicity against LPS-stimulated splenocytes isolated from thioglycolate-stimulated C57BL/6 mouse assessed as alterations in forward and side scattering distribution for splenocytes using propidium iodide-staining after 48 hrs by FACS analysis; assay type: cell-based; conditions: splenocyte
RAW264.7 [9] = experiment: Toxicity in LPS-stimulated […] assessed as decrease in live cells at 100 uM using propidium iodide-staining by FACS analysis; assay type: cell-based; conditions: raw264.7, 100 µM
RAW264.7 [10] = experiment: Cytotoxicity against […] assessed as effect on cell viability at 100 uM after 2 hrs by MTT assay; assay type: cell-based; conditions: raw264.7, 2 h
[11] = Toxicity in LPS-stimulated splenocytes cells isolated from thioglycolate-stimulated C57BL/6 mouse assessed as decrease in live cells at 100 uM after 48 hrs using propidium iodide-staining by FACS analysis; assay type: cell-based; conditions: splenocyte
[12] = Toxicity in LPS-stimulated splenocytes isolated from thioglycolate-stimulated C57BL/6 mouse assessed as decrease in live cells at 10 uM after 48 hrs using propidium iodide-staining by FACS analysis; assay type: cell-based; conditions: splenocyte
[13] = Toxicity in LPS-stimulated splenocytes isolated from thioglycolate-stimulated C57BL/6 mouse assessed as decrease in live cells at 10 uM after 24 hrs using propidium iodide-staining by FACS analysis; assay type: cell-based; conditions: splenocyte
RAW264.7 [14] = experiment: Antiinflammatory activity against LPS-stimulated […] at 10 uM after 24 hrs by ELISA relative to control; assay type: functional; conditions: RAW264.7, 24 h
Splenocyte [15] = experiment: Antiinflammatory activity against LPS-stimulated splenocytes isolated from thioglycolate-stimulated C57BL/6 mouse at 10 uM after 24 hrs by ELISA relative to control; assay type: functional, cell-based
[16] = Cytotoxicity against splenocytes isolated from thioglycolate-stimulated C57BL/6 mouse at 10 uM after 2 hrs by MTT assay; assay type: cell-based; conditions: splenocyte
RAW264.7 [17] = experiment: Cytotoxicity against […] assessed as effect on cell viability at 10 uM after 2 hrs by MTT assay; assay type: cell-based; conditions: raw264.7, 2 h

SMILES | inhibition (INH) [1] [%] | Activity [2] | Activity [3] | inhibition [4] | inhibition (Splenocyte [5]) | Activity [6] | inhibition at 100 µM (RAW264.7 [7]) [%] | Activity [8] | Activity (RAW264.7 [9]) | Activity (RAW264.7 [10]) | Activity [11] | Activity [12] | Activity [13] | inhibition at 10 µM (RAW264.7 [14]) [%] | inhibition (Splenocyte [15]) | Activity [16] | Activity (RAW264.7 [17])
N[C@H]1CCCC[C@H]1NC(=O)P(=O)(O)O (relative stereo) | 30 | Non-toxic | Non-toxic | inactive | Active | Non-toxic | 60 | Non-toxic | Non-toxic | Non-toxic | Non-toxic | – | – | – | – | – | –
CCCC1O[C@@H]2C[C@H]3[C@@H]4CCC5=CC(=O)C=C[C@]5(C)[C@H]4[C@@H](O)C[C@]3(C)[C@]2(C(=O)CO)O1 (stereo not given in full) [BUDESONIDE] | – | – | – | – | – | – | – | – | – | – | – | Toxic | Toxic | 60 | Active | Non-toxic | Non-toxic
O=C(NCCN1CCCC1)P(=O)(O)O | 30 | Non-toxic | Non-toxic | inactive | Active | Non-toxic | 60 | Non-toxic | Non-toxic | Non-toxic | Non-toxic | – | – | – | Active | – | –
O=C(NCCN1CCCCC1)P(=O)(O)O | 30 | Non-toxic | Non-toxic | Active | Active | Non-toxic | 60 | Non-toxic | Non-toxic | Non-toxic | Non-toxic | – | – | – | – | – | –
